According to the CheMixHub ionic liquid set:
± gives the uncertainty stated by the source.

Experiment: xn = mol fraction of the nth substance listed
Conditions: 100 kPa

CC[n+]1ccn(C)c1.F[P-](F)(F)(F)(F)F + CC(C)C[C@H](N)C(=O)O + O
Conditions	electrical conductivity, 298.15 K [S/m]	electrical conductivity, 303.15 K [S/m]	electrical conductivity, 308.15 K [S/m]	viscosity, 298.15 K [mPa·s]	viscosity, 303.15 K [mPa·s]	viscosity, 308.15 K [mPa·s]
x2 = 0.0001802, x1 = 1.802e-05	0.011 ± 0.0011	0.0123 ± 0.0012	0.0135 ± 0.0014	0.925 ± 0.071	0.857 ± 0.07	0.783 ± 0.07
x2 = 0.0001803, x1 = 5.405e-05	0.0293 ± 0.0029	0.0326 ± 0.0033	0.0354 ± 0.0035	0.94 ± 0.071	0.862 ± 0.071	0.788 ± 0.07
x2 = 0.0001804, x1 = 9.008e-05	0.0464 ± 0.0046	0.0517 ± 0.0052	0.0561 ± 0.0056	0.955 ± 0.071	0.866 ± 0.071	0.793 ± 0.07
x2 = 0.0004522, x1 = 1.801e-05	0.0109 ± 0.0011	0.0122 ± 0.0012	0.0133 ± 0.0013	0.933 ± 0.071	0.864 ± 0.071	0.791 ± 0.07
x2 = 0.0004524, x1 = 5.403e-05	0.0295 ± 0.0029	0.0328 ± 0.0033	0.0353 ± 0.0035	0.946 ± 0.071	0.868 ± 0.071	0.795 ± 0.07
x2 = 0.0004526, x1 = 9.005e-05	0.0461 ± 0.0046	0.0514 ± 0.0051	0.0557 ± 0.0056	0.962 ± 0.071	0.876 ± 0.071	0.802 ± 0.07
x2 = 0.0007258, x1 = 1.801e-05	0.0111 ± 0.0011	0.0122 ± 0.0012	0.0135 ± 0.0014	0.94 ± 0.071	0.872 ± 0.071	0.799 ± 0.07
x2 = 0.0007262, x1 = 5.402e-05	0.0293 ± 0.0029	0.0326 ± 0.0033	0.0351 ± 0.0035	0.957 ± 0.071	0.879 ± 0.071	0.805 ± 0.07
x2 = 0.0007265, x1 = 9.003e-05	0.0458 ± 0.0046	0.051 ± 0.0051	0.0558 ± 0.0056	0.973 ± 0.071	0.885 ± 0.071	0.812 ± 0.07
x2 = 0.0009976, x1 = 1.8e-05	0.0106 ± 0.0011	0.0118 ± 0.0012	0.013 ± 0.0013	0.947 ± 0.071	0.88 ± 0.071	0.806 ± 0.07
x2 = 0.000998, x1 = 5.4e-05	0.0288 ± 0.0029	0.032 ± 0.0032	0.0348 ± 0.0035	0.964 ± 0.071	0.885 ± 0.071	0.811 ± 0.07
x2 = 0.0009985, x1 = 9e-05	0.0451 ± 0.0045	0.0505 ± 0.005	0.055 ± 0.0055	0.981 ± 0.071	0.895 ± 0.071	0.82 ± 0.07
x2 = 0.001273, x1 = 1.8e-05	0.011 ± 0.0011	0.0122 ± 0.0012	0.0134 ± 0.0013	0.955 ± 0.071	0.888 ± 0.071	0.814 ± 0.07
x2 = 0.001273, x1 = 5.399e-05	0.0285 ± 0.0029	0.0318 ± 0.0032	0.0345 ± 0.0034	0.973 ± 0.071	0.895 ± 0.071	0.821 ± 0.07
x2 = 0.001274, x1 = 8.998e-05	0.0449 ± 0.0045	0.0502 ± 0.005	0.0545 ± 0.0054	0.991 ± 0.071	0.904 ± 0.071	0.827 ± 0.07
x2 = 0.001546, x1 = 1.799e-05	0.0112 ± 0.0011	0.0123 ± 0.0012	0.0136 ± 0.0014	0.961 ± 0.071	0.895 ± 0.071	0.822 ± 0.07
x2 = 0.001547, x1 = 5.397e-05	0.0283 ± 0.0028	0.0315 ± 0.0032	0.0344 ± 0.0034	0.982 ± 0.071	0.905 ± 0.071	0.831 ± 0.07
x2 = 0.001547, x1 = 8.995e-05	0.0445 ± 0.0044	0.0493 ± 0.0049	0.0541 ± 0.0054	1 ± 0.071	0.912 ± 0.071	0.841 ± 0.07

CC[N+]1(C)CCCC1.COP(=O)([O-])OC + CCO
Conditions	viscosity [mPa·s]
293.15 K, x1 = 0.0534	2.2 ± 0.13
293.15 K, x1 = 0.1535	5.03 ± 0.3
298.15 K, x1 = 0.1535	4.5 ± 0.27
298.15 K, x1 = 0.306	11.71 ± 0.71
303.15 K, x1 = 0.1535	4.05 ± 0.24
303.15 K, x1 = 1	123.5 ± 7.8
308.15 K, x1 = 0.5052	20.8 ± 1.3
308.15 K, x1 = 0.6938	40.6 ± 2.5
308.15 K, x1 = 1	93.5 ± 5.8
318.15 K, x1 = 0.1054	2.13 ± 0.13
323.15 K, x1 = 0.0534	1.37 ± 0.08
323.15 K, x1 = 0.1535	2.82 ± 0.17
323.15 K, x1 = 0.2015	3.64 ± 0.22
323.15 K, x1 = 0.6938	22.8 ± 1.4
323.15 K, x1 = 0.8049	30.6 ± 1.9
328.15 K, x1 = 0.1054	1.84 ± 0.11
328.15 K, x1 = 0.2015	3.34 ± 0.2
328.15 K, x1 = 0.6022	14.74 ± 0.89
328.15 K, x1 = 0.8049	24.8 ± 1.5
333.15 K, x1 = 0.2015	3.05 ± 0.18
338.15 K, x1 = 0.0534	1.1 ± 0.07
338.15 K, x1 = 0.9073	20.5 ± 1.3
338.15 K, x1 = 1	24 ± 1.5

CCOS(=O)(=O)[O-].CC[n+]1ccn(C)c1 + OCCN(CCO)CCO
Conditions	viscosity [mPa·s]
303.15 K, x2 = 0	75.7 ± 1.6
